We go through four compounds from patent US6372937B1, “Enhanced catalyzed reporter deposition” (priority 1998, dated 2002).

Test [1] concerns the target T1, HRP (Armoracia rusticana, UniProt P00433).
T1 sequence (P00433 31-338): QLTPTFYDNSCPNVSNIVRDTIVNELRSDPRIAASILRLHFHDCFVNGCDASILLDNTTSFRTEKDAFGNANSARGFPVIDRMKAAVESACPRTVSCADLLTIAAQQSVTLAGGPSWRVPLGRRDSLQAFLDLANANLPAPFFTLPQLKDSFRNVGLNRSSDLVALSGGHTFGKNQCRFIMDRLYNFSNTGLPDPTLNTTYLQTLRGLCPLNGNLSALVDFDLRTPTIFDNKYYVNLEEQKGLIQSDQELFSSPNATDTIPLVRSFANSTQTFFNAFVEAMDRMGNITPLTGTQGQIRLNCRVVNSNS
As to the kind of experiment: Enhanced CARD detection using biotinyl tyramide on human prostate tissue slides. In kind it is biochemical, horseradish. The conditions noted are these: enhancer at 20:1 (w/w) plus NaCl 2M, Streptavidin-HRP/diaminobenzidine readout. The method, then: Human prostate tissue slides (Dako) were deparaffinized and blocked for thirty minutes with TNB Blocking Buffer (TSA Indirect kit, NEN Life Science Products). Rabbit anti-human prostate specific antigen (Dako) diluted 1/100,000 in TNB buffer was incubated for one hour at room temperature. The slides were washed in TNT buffer (TSA Indirect kit) and then incubated with an anti-rabbit IgG-HRP conjugate (Roche) diluted 1/1000 in TNB buffer for one hour at room temperature.
Standard CARD detection was performed using the TSA Indirect kit, which utilizes biotinyl tyramide. Organic and salt enhanced CARD detection was performed using the TSA Indirect kit, adding N-(5-hydroxypentyl)-3-(p-hydroxyphcnyl)propionamide (structure 1) at a 20:1 (w/w) ratio to the biotinyl tyramide reagent and adding NaCl to the diluent to a final concentration of 2M. The slides were washed in TNT buffer, and Streptavidin-HRP (TSA Indirect kit) diluted 1/100 in TNB buffer was incubated for thirty minutes at room temperature. The slides were washed in TNT buffer and diaminobenzidine (NEN Life Science Products) was added and incubated for three minutes at room temperature. The slides were washed with water, and counterstained with Hematoxylin. The slides were then washed with water, phosphate buffered saline, water, dehydrated and mounted.

Test [2] addresses T1, HRP. As to the kind of experiment: Enhanced CARD detection using cyanine 3 tyramide on human prostate tissue slides. In kind it is biochemical, horseradish. How it is done: Human prostate tissue slides (Dako Corp., Carpinteria, Calif.) were deparaffinized and blocked for thirty minutes with TNB Blocking Buffer (TSA Direct Cyanine 3 kit, NEN Life Science Products, Boston, Mass.). Rabbit anti-human prostate specific antigen (Dako) diluted 1/40,000 in TNB buffer was incubated for one hour at room temperature. The slides were washed in TNT buffer (TSA Direct Cyanine 3 kit) and then incubated with an anti-rabbit IgG-HRP conjugate (Roche Molecular Biochemicals, Indianapolis, Ind.) diluted 1/1000 in TNB buffer for one hour at room temperature. Standard CARD detection was performed using the TSA Direct Cyanine 3 kit. Organic enhanced CARD detection was performed using the TSA Direct Cyanine 3 kit and adding p-iodophenyl boronic acid (structure 2) at a 20:1 (w/w) ratio to the cyanine 3 tyramide reagent. Organic and salt enhanced CARD detection was performed using the TSA Direct Cyanine 3 kit, adding p-iodophenyl boronic acid (structure 2) at a 20:1 (w/w) ratio to the cyanine 3 tyramide reagent and adding NaCl to the diluent to a final concentration of 2M. The slides were washed in TNT buffer, mounted with mounting medium and a coverslip.

The target of test [3] is T1, HRP. As to the kind of experiment: Enhanced CARD detection using fluorescein tyramide on human prostate tissue slides. The format is biochemical, horseradish. The method, then: Human prostate tissue slides (Dako) were deparaffinized and blocked for thirty minutes with TNB Blocking Buffer (TSA Direct Green kit, NEN Life Science Products). Rabbit anti-human prostate specific antigen (Dako) diluted 1/10,000 in TNB buffer was incubated for one hour at room temperature. The slides were washed in TNT buffer (TSA Direct Green kit) and then incubated with an anti-rabbit IgG-HRP conjugate (Roche) diluted 1/1000 in TNB buffer for one hour at room temperature. Standard CARD detection was performed using the TSA Direct Green kit, which utilizes fluorescein tyramide. Organic enhanced CARD detection was performed using the TSA Direct Green kit and adding p-iodophenyl boronic acid (structure 2) at a 20:1 (w/w) ratio to the fluorescein tyramide reagent. Organic and salt enhanced CARD detection was performed using the TSA Direct Green kit, adding p-iodophenyl boronic acid (structure 2) at a 20:1 (w/w) ratio to the fluorescein tyramide reagent and adding NaCl to the diluent to a final concentration of 2M. The slides were washed in TNT buffer, mounted with mounting medium and a coverslip.

Test [4] concerns the target T1, HRP. The conditions noted are these: cited from earlier work.
[5] abbreviates: NaCl 2M in diluent added to p-iodophenyl boronic acid 20:1 (w/w).
Where [6] appears, read: enhancer at 20:1 (w/w) ratio to tyramide reagent.

In the case of `O=C(CCc1ccc(O)cc1)NCCCCCO` [N-(5-hydroxypentyl)-3-(p-hydroxyphcnyl)propionamide], the “organic and salt enhanced vs standard CARD detection (FIG. 3A compared to FIG. 3B)” value in test [1] was “striking difference”.

In the case of `[Cl-].[Na+]` [NaCl], in test [2] (setting [5]), the “addition of salt to the organic enhanced CARD detection (FIG. 1B compared to FIG. 1C)” value was “significant improvement”. Also, in test [3] (setting [5]), the “addition of salt to the organic enhanced CARD detection (FIG. 2B compared to FIG. 2C)” value is “very dramatic improvement”.

On to `OB(O)c1ccc(I)cc1` [p-iodophenyl boronic acid], for which the “organic enhanced vs standard CARD detection (FIG. 1A compared to FIG. 1B)” value in test [2] (setting [6]) is “very dramatic difference”. The “organic enhanced vs standard CARD detection (FIG. 2A compared to FIG. 2B)” value in test [3] (setting [6]) was “significant difference”.

Consider `c1c[nH]cn1` [imidazole], for which the “effect on the oxidation of 4-chloro-1-naphthol” value in test [4] (substrate 4-chloro-1-naphthol) was “no effect”. The “enhancement of the oxidation of p-phenylenediamine-pyrocatechol” value in test [4] (substrate combination p-phenylenediamine-pyrocatechol) was “two fold”. In addition, in test [4] (substrate diaminobenzidine), the “enhancement of the oxidation of diaminobenzidine” value is “approximately four fold”.
